Measurements: patent US20090275538A1, “ARYLMETHYLIDENE HETEROCYCLES AS NOVEL ANALGESICS” (priority 2008, published 2009)

Tested on: neuropathic rats (chronic constriction injury of the left sciatic nerve)
Assay: Analgesic effect in chronic constriction injury (Bennett) model of neuropathic pain, Von Frey 50% withdrawal threshold
Assay type: in vivo, Sprague-Dawley rats
Conditions: rats rendered neuropathic via the Bennett Model; intrathecal administration in Captisol; mean ± SEM; p<0.05 vs vehicle control
Method: Determination of Analgesic Effect in an Experimental Model of Neuropathic Pain
Adult, male Sprague-Dawley rats were obtained from Charles River Laboratories (Wilmington, Mass.) and housed under standard conditions at the Institut Armand-Frappier (Laval, QC). Food and water were provided to experimental animals ad libitum, and rats weighed 175-200 grams at the time of assessment.
Compounds were prepared for intrathecal administration by dissolving them in a vehicle of Captisol® (CyDex, Lenexa, Kans.); total volume of solution administered to rats was 20 μL.
Neuropathic pain was induced in rats via chronic constriction injury (CCl) of the left sciatic nerve in accordance with the procedure described by Bennett & Xie (Pain, 1988). Briefly, under ketamine/xylazine anaesthesia, the sciatic nerve was exposed by dissection at the level of mid-thigh, and four loose ligatures (USP 4/0, Braun Melsungen, FRG) were implanted around the nerve—with due attention not to interrupt the epineural circulation. The incision was closed-up using simple suturing, and the rats allowed to recover.
After approximately two weeks, a stable allodynia to blunt mechanical stimuli was identified in the hind paw ipsilateral to the CCl, manifested as a reduction of 50% withdrawal threshold, and identified using the Von Frey technique, as described by Chaplan et al. (Journal of Neuroscience Methods, 1994). Rats were considered to be fully neuropathic upon displaying a 50% withdrawal threshold of <3.5 grams consistently over the course of 72 hours.
Under brief isoflurane […], compounds were administered to neuropathic rats via acute local delivery in the intrathecal space surrounding the lumbar enlargement of the spinal cord.

Row | Compound | Peak 50% Withdrawal Threshold
1 | CCN(CC)C1CCN(C2=NC(=O)/C(=C\c3cc(F)ccc3OC(=O)N(C)C)S2)C1 (stereo not shown) | 11.84 ± 1.58 g
2 | CN(C)[C@@H]1CCN(C2=NC/C(=C/c3cc(F)ccc3O)S2)C1.Cl | 6.44 ± 1.33 g
3 | CN(C)[C@H]1CCN(C2=NC(=O)/C(=C/c3cc(F)ccc3O)S2)C1.CS(=O)(=O)O | 9.72 ± 2.04 g
4 | CN(C)[C@@H]1CCN(C2=NC(=O)/C(=C/c3ccc(F)cc3O)S2)C1 | 5.6 ± 1.94 g
5 | CN(C)[C@H]1CCN(C2=NC(=O)/C(=C/c3ccc(F)cc3O)S2)C1.CS(=O)(=O)O | 7.3 ± 1.37 g
6 | O=C1N=C(N2CCCCC2)S/C1=C\c1ccccc1O | 6.74 ± 2.13 g
7 | O=C1N=C(N2CCN(CCO)CC2)S/C1=C\c1ccc(F)cc1O | 8.23 ± 2.40 g
8 | CS(=O)(=O)O.O=C1N=C(N2CCN(CCO)CC2)S/C1=C\c1cc(F)ccc1O | 6.40 ± 2.45 g
9 | Cl.O=C1N=C(N2CCCCN2)S/C1=C/c1cc(F)ccc1OC(=O)N1CCCC1 [2-{[(5E)-2-(1,2-diazinan-1-yl)-4-oxo-4,5-dihydro-1,3-thiazol-5-ylidene]methyl}-4-fluorophenylpyrrolidine-1-carboxylate hydrochloride] | 8.18 ± 1.98 g
10 | CN(C)C(=O)Oc1cc(F)ccc1/C=C1/SC(N2CCCCN2)=NC1=O.Cl [2-{[(5E)-2-(1,2-diazinan-1-yl)-4-oxo-4,5-dihydro-1,3-thiazol-5-ylidene]methyl}-5-fluorophenyl N,N-dimethylcarbamate hydrochloride] | 6.18 ± 1.77 g
11 | Cl.O=C1N=C(N2CCCCN2)S/C1=C/c1ccc(F)cc1OC(=O)N1CCCC1 [2-{[(5E)-2-(1,2-diazinan-1-yl)-4-oxo-4,5-dihydro-1,3-thiazol-5-ylidene]methyl}-5-fluorophenyl pyrrolidine-1-carboxylate hydrochloride] | 7.42 ± 1.21 g
12 | O=C1N=C(N2CCCCN2)S/C1=C\c1ccc(F)cc1O [(5Z)-2-(1,2-diazinan-1-yl)-5-[(4-fluoro-2-hydroxyphenyl)methylidene]-4,5-dihydro-1,3-thiazol-4-one] | 7.37 ± 2.02 g
13 | O=C1N=C(N2CCCCN2)S/C1=C\c1cc(F)ccc1O [(5Z)-2-(1,2-diazinan-1-yl)-5-[(5-fluoro-2-hydroxyphenyl)methylidene]-4,5-dihydro-1,3-thiazol-4-one] | 9.03 ± 2.00 g
